According to article PMC4177916, “Characterization of the Sterol and Phosphatidylinositol 4-Phosphate Binding Properties of Golgi-Associated OSBP-Related Protein 9 (ORP9)” (PLoS ONE, 2014):
Positions count from the first letter of the chain named.

Columns and labels:
Type in all cases: binding
ORP9L [1] = molecular target: T1, ORP9L (Homo sapiens, UniProt Q96SU4); assay: inhibition of CTL extraction from liposomes (FRET); settings: equimolar cholesterol and CTL (2.5 mol% each); pH 7.4, 30 °C
T1 construct: gene OSBPL9; full-length long variant, C-terminal V5-His tag (stated for the HH/AA mutant)
T1 sequence (Q96SU4 2-736): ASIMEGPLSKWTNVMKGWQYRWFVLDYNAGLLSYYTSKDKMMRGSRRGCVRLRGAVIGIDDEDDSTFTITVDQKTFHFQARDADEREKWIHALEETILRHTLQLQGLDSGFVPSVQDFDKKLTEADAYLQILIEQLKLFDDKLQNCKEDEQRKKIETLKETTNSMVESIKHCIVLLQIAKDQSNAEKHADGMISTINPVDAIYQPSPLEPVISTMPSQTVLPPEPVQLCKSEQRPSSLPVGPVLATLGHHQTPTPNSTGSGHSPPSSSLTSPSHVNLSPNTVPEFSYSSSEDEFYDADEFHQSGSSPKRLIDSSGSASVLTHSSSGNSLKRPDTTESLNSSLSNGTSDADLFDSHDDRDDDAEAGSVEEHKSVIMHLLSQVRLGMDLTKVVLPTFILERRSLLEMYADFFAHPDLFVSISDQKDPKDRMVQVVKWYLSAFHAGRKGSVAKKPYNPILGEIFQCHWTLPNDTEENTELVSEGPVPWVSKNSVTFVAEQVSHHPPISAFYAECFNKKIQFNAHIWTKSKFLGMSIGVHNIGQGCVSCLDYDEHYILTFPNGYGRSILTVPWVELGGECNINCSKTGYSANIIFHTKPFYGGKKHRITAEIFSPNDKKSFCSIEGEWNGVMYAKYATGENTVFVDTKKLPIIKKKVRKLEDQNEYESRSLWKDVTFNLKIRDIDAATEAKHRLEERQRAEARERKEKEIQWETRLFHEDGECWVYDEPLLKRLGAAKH

ORP9L [2] = molecular target: T1, ORP9L; assay: […]PI-4P extraction from liposomes, sedimentation; settings: pH 7.4, 25 °C, 20 min; 0.1 mM liposomes with 0.5 mol% PI-4P; labelled compound
ORP9L [3] = molecular target: T2, ORP9L (Homo sapiens, UniProt Q96SU4, H501A/H502A, form not given); assay: as above; settings: 100 pmol protein; pH 7.4, 25 °C, 20 min; labelled compound
T2 construct: gene OSBPL9; full-length long variant, C-terminal V5-His tag (stated for the HH/AA mutant)
T2 sequence (Q96SU4 2-736 H501A/H502A): T1 sequence (Q96SU4 2-736) with H500A, H501A

ORP9S = molecular target: T3, ORP9S (Homo sapiens, UniProt Q96SU4); assay: as above; settings: pH 7.4, 25 °C, 20 min; 0.1 mM liposomes with 0.5 mol% PI-4P; labelled compound
T3 construct: gene OSBPL9; short variant lacking N-terminal PH domain, His-tagged
T3 sequence (Q96SU4 100-736 limits assumed): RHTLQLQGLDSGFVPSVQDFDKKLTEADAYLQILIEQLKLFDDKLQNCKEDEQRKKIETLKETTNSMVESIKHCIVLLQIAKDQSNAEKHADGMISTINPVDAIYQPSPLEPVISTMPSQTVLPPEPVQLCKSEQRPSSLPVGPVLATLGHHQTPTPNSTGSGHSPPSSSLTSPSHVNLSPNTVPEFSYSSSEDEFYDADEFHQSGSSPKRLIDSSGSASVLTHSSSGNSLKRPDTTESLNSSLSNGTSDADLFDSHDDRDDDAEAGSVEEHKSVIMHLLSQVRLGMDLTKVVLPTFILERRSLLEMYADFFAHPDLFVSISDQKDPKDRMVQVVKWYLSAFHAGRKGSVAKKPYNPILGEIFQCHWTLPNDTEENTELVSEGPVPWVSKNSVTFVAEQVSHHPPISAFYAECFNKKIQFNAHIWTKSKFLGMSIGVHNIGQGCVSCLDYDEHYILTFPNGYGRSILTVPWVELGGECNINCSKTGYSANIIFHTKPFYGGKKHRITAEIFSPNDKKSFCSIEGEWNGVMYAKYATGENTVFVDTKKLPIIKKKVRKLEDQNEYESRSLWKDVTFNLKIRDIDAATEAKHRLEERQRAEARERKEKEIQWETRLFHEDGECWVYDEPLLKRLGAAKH

Osh6 = molecular target: T4, Osh6 (Saccharomyces cerevisiae, UniProt Q02201); assay: [3H]PS extraction from liposomes, sedimentation; settings: 100 pmol protein; pH 7.4, 25 °C, 20 min; labelled compound
T4 construct: hexahistidine-SUMO3-tagged, expressed in bacteria
T4 sequence (Q02201 1-448): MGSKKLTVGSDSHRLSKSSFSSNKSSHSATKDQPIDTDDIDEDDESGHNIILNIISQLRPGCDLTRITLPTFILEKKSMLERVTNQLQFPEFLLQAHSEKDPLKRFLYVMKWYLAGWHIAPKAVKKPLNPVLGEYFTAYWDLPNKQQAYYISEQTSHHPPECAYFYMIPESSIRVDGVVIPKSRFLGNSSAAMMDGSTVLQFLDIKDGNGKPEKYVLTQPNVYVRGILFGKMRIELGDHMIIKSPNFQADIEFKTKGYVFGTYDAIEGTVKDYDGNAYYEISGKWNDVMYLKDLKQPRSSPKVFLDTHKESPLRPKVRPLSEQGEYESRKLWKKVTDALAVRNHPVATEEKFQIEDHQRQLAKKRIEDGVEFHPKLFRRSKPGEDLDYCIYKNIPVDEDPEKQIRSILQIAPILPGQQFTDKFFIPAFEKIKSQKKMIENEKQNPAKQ

## CC(C)CCC[C@@H](C)[C@H]1CC[C@H]2[C@@H]3CC=C4C[C@@H](O)CC[C@]4(C)[C@H]3CC[C@]12C [cholesterol]
ORP9L [1]
  % inhibition of CTL extraction: 50%

## PI-4P
ORP9L [2]
  % maximal extraction: 9%
ORP9L [3]
  % reduction of extraction versus wild type: > 75%
ORP9S
  % extraction: 14%

## phosphatidylserine
Osh6
  % extraction: ~ 2%
